Results published in ChEMBL document CHEMBL1147622, “Design and synthesis of indolo[2,3-a]quinolizin-7-one inhibitors of the ZipA-FtsZ interaction” (2004).

Tests used:
Escherichia coli = assay: Inhibition of ZipA FtsZ binding at 1 mM using an optical biosensor system
[1] = Antibacterial activity against Gram-positive, Gram-negative bacteria and Escherichia coli; assay type: functional

O=C(CCCn1c2c(c3ccccc31)C(=O)CN1CCCCC21)NCC(F)(F)F (stereo not given)
inhibition (Escherichia coli): 21% | MIC [1]: ≥ 200 µM

NCCCn1c2c(c3ccccc31)C(=O)CN1CCCCC21 (stereo not given)
inhibition (Escherichia coli): 47% | MIC [1]: ≥ 200 µM

O=C(CCCn1c2c(c3ccccc31)C(=O)CN1CCCCC21)NC1CCCC1 (stereo not given)
inhibition (Escherichia coli): 24% | MIC [1]: ≥ 200 µM

O=C1CN2CCCCC2c2c1c1ccccc1n2CCCNS(=O)(=O)c1ccc(Cl)s1 (stereo not given)
inhibition (Escherichia coli): 11% | MIC [1]: ≥ 200 µM

Cc1ccc(CNC(=O)CCn2c3c(c4ccccc42)C(=O)CN2CCCCC32)o1 (stereo not given)
inhibition (Escherichia coli): 32% | MIC [1]: ≥ 200 µM

O=C1CN2CCCCC2c2c1c1ccccc1n2CCCN1CC(Br)C1=O (stereo not given)
inhibition (Escherichia coli): 38% | MIC [1]: ≥ 200 µM

CC(C)S(=O)(=O)NCCCn1c2c(c3ccccc31)C(=O)CN1CCCCC21 (stereo not given)
inhibition (Escherichia coli): 46% | MIC [1]: ≥ 200 µM

O=C(Cn1c2c(c3ccccc31)C(=O)CN1CCCCC21)NC1CCCC1 (stereo not given)
inhibition (Escherichia coli): 31% | MIC [1]: ≥ 200 µM

O=C1CN2CCCCC2c2[nH]c3ccccc3c21 (stereo not given)
inhibition (Escherichia coli): 39% | MIC [1]: ≥ 200 µM

Cc1ccc(CNC(=O)CCCn2c3c(c4ccccc42)C(=O)CN2CCCCC32)o1 (stereo not given)
inhibition (Escherichia coli): 23% | MIC [1]: ≥ 200 µM

O=C1CN2CCCCC2c2c1c1ccccc1n2CCCNS(=O)(=O)c1cc(Cl)sc1Cl (stereo not given)
inhibition (Escherichia coli): 12% | MIC [1]: ≥ 200 µM

Cc1nnsc1S(=O)(=O)NCCCn1c2c(c3ccccc31)C(=O)CN1CCCCC21 (stereo not given)
inhibition (Escherichia coli): 30% | MIC [1]: ≥ 200 µM

N#CCCNC(=O)CCCn1c2c(c3ccccc31)C(=O)CN1CCCCC21 (stereo not given)
inhibition (Escherichia coli): 39% | MIC [1]: ≥ 200 µM

O=C(NCCCn1c2c(c3ccccc31)C(=O)CN1CCCCC21)c1ccco1 (stereo not given)
inhibition (Escherichia coli): 38% | MIC [1]: ≥ 200 µM

CS(=O)(=O)NCCCn1c2c(c3ccccc31)C(=O)CN1CCCCC21 (stereo not given)
inhibition (Escherichia coli): 41% | MIC [1]: ≥ 200 µM

O=C(Cc1ccc(F)cc1)NCCCn1c2c(c3ccccc31)C(=O)CN1CCCCC21 (stereo not given)
inhibition (Escherichia coli): 33% | MIC [1]: ≥ 200 µM

N#CCCNC(=O)CCn1c2c(c3ccccc31)C(=O)CN1CCCCC21 (stereo not given)
inhibition (Escherichia coli): 22% | MIC [1]: ≥ 200 µM

CCCCS(=O)(=O)NCCCn1c2c(c3ccccc31)C(=O)CN1CCCCC21 (stereo not given)
inhibition (Escherichia coli): 25% | MIC [1]: ≥ 200 µM

O=C1CN2CCCCC2c2c1c1ccccc1n2CCCNS(=O)(=O)c1cccs1 (stereo not given)
inhibition (Escherichia coli): 25% | MIC [1]: ≥ 200 µM

O=C(NCCCn1c2c(c3ccccc31)C(=O)CN1CCCCC21)c1ccc(Cl)c(Cl)c1 (stereo not given)
inhibition (Escherichia coli): 8% | MIC [1]: ≥ 200 µM
